These results are taken from ChEMBL document CHEMBL1153754, “1-Aryl-3,4-dihydroisoquinoline inhibitors of JNK3” (Bioorg Med Chem Lett, 2009).

Chain of Mitogen-activated protein kinase 14 (Q16539 whole entry): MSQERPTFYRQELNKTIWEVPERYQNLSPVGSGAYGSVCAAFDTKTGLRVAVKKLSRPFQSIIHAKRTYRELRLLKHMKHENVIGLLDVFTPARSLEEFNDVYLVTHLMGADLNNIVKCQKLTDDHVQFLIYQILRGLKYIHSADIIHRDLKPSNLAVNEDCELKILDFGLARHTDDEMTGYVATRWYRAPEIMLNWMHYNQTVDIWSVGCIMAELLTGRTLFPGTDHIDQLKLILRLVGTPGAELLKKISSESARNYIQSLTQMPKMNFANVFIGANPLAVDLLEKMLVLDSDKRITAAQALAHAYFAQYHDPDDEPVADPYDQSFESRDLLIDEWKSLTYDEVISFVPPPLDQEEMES

One test addresses Mitogen-activated protein kinase 14 (Homo sapiens, UniProt Q16539). The experiment in a line: Inhibition of N-terminal GST-tagged p38alpha expressed in Escherichia coli by fluorescence anisotropy.
In turn, `COc1cc2c(cc1Cl)C(c1cccc(F)c1)=NCC2` showed an IC50 of more than 15.8 µM.

Take `COc1cc2c(cc1Cl)C(c1cccc(Cl)c1F)=NCC2`: the IC50 was 12.6 µM.

In the case of `COc1cc2c(cc1Cl)C(c1cccc(C)c1)=NCC2`, the 50% inhibitory concentration (IC50) is more than 15.8 µM.

Compound `CCC1=NCCc2cc(OC)c(Cl)cc21` had an IC50 of more than 15.8 µM.

For the compound `Clc1cccc(C2=NCCc3ccccc32)c1`, the IC50 was more than 15.8 µM.

In turn, `COc1cccc(C2=NCCc3cc(OC)c(OC)cc32)c1` had an IC50 of more than 15.8 µM.

Turning to `COc1cc2c(cc1Cl)C(c1ccc(F)cc1)=NCC2`, the IC50 is more than 15.8 µM.

In the case of `COc1cc2c(cc1OC)C(c1ccc(Cl)cc1)=NCC2`, the half-inhibitory concentration (IC50) was more than 15.8 µM.

`COc1cc2c(cc1OC)C(c1ccc(Cl)c(Cl)c1)=NCC2`: the IC50 was more than 15.8 µM.

For `COc1cc2c(cc1Cl)C(c1ccc3ccccc3c1)=NCC2`, the half-inhibitory concentration (IC50) was more than 15.8 µM.

The compound `COc1cc2c(cc1Cl)C(c1cccc(Br)c1)=NCC2` gave a half-inhibitory concentration (IC50) of 12.6 µM.

Compound `COc1cc2c(cc1Cl)C(c1ccccc1)=NCC2` gave an IC50 of more than 15.8 µM.

The compound `COc1cc2c(cc1Cl)C(Cc1ccccc1)=NCC2` had a half-maximal inhibitory concentration (IC50) of more than 15.8 µM.

The target in a further test is Mitogen-activated protein kinase 10 (Homo sapiens, UniProt P53779). The experiment in a line: Inhibition of N-terminal His(6)-tagged truncated human JNK3 transfected in baculovirus expression system by fluorescence anisotropy.
Chain of Mitogen-activated protein kinase 10 (P53779 whole entry, the tested form may be a part): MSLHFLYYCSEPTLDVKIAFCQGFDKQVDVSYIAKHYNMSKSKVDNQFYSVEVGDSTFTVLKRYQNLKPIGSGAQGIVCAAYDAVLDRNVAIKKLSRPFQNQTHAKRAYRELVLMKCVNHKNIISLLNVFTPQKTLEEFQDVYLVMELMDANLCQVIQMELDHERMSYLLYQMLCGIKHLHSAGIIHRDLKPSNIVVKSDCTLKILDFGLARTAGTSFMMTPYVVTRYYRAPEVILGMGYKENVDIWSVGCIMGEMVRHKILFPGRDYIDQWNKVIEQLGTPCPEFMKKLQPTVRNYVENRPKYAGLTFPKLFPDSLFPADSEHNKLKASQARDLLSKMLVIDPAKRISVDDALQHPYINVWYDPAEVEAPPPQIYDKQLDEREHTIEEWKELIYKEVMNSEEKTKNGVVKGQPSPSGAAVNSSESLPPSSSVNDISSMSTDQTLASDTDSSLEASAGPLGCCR
`COc1cc2c(cc1Cl)C(c1cccc(F)c1)=NCC2`: 3.98 µM corresponded to half-maximal inhibition (IC50).

For `COc1cc2c(cc1Cl)C(c1cccc(Cl)c1F)=NCC2`, the half-maximal inhibitory concentration (IC50) is 0.631 µM.

Take `COc1cc2c(cc1Cl)C(c1cccc(C)c1)=NCC2`: the concentration for half-maximal inhibition (IC50) was 2 µM.

For `CCC1=NCCc2cc(OC)c(Cl)cc21`, the IC50 was more than 15.8 µM.

`Clc1cccc(C2=NCCc3ccccc32)c1` had an IC50 of more than 15.8 µM.

`COc1cccc(C2=NCCc3cc(OC)c(OC)cc32)c1` had an IC50 of more than 15.8 µM.

Consider `COc1cc2c(cc1Cl)C(c1ccc(F)cc1)=NCC2`, for which half-maximal inhibition (IC50) required 5.01 µM.

The compound `COc1cc2c(cc1OC)C(c1ccc(Cl)cc1)=NCC2` showed an IC50 of more than 15.8 µM.

For the compound `COc1cc2c(cc1OC)C(c1ccc(Cl)c(Cl)c1)=NCC2`, the half-maximal inhibitory concentration (IC50) is 6.31 µM.

`COc1cc2c(cc1Cl)C(c1ccc3ccccc3c1)=NCC2` had a 50% inhibitory concentration (IC50) of 1 µM.

For the compound `COc1cc2c(cc1Cl)C(c1cccc(Br)c1)=NCC2`, the IC50 is 0.398 µM.

For the compound `COc1cc2c(cc1Cl)C(c1ccccc1)=NCC2`, the IC50 is 6.31 µM.

In the case of `COc1cc2c(cc1Cl)C(Cc1ccccc1)=NCC2`, the half-maximal inhibitory concentration (IC50) was more than 15.8 µM.
